Measured values taken from patent publication US7560466B2, “Methods of treating or preventing autoimmune diseases with 2,4-pyrimidinediamine compounds” (Rigel Pharmaceuticals, Inc., priority 2003, dated 2009).
pIC50: −log10 of the molar value. Counter-ions that a name gives are not always drawn. Like-named read-outs stand apart in the source and are kept apart here.

Legend:
[1] = tested on: cultured human mast cells (CHMC), IgE-induced degranulation; test: CHMC low cell density IgE activation: tryptase assay; format: cell-based
Method in brief: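 Cord-blood CD34+-derived mucosal mast cells (SCF/IL-6 medium), 1000–1500 cells/well, preincubated with compound 1 h at 37°C, then anti-IgE stimulated 30 min at 37°C.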

[2] = tested on: cultured human mast cells (CHMC), ionomycin-induced degranulation; test: CHMC low cell density ionomycin activation: tryptase assay; format: cell-based; details: ionomycin activation, read-out: LD Tryptase, CHMC, Iono, 3pt
[3] = low cell density CHMC, 3pt, read-out: LD Tryptase, CHMC, IgE, 3pt
[4] = low cell density CHMC, 8pt, read-out: LD Tryptase, CHMC, IgE, 8pt
[5] = low cell density CHMC, 3-point, read-out: LD Tryptase, CHMC, IgE, 3pt
[6] = low cell density CHMC, 8-point, read-out: LD Tryptase, CHMC, IgE, 8pt
[7] = Homo sapiens, Mast cell, low cell density CHMC, 3pt, read-out: LD Tryptase, CHMC, IgE, 3pt
[8] = Homo sapiens, Mast cell, low cell density CHMC, 8pt, read-out: LD Tryptase, CHMC, IgE, 8pt
[9] = CHMC low cell density, 8pt, read-out: LD Tryptase, CHMC, IgE, 8pt

Row | Molecule | pIC50 [1, 3] | pIC50 [1, 4] | also measured
1 | CNC(=O)COc1cccc(Nc2ncc(F)c(Nc3ccc4c(n3)NC(=O)C(C)(C)O4)n2)c1 [Compound 992, N4-(2,2-Dimethyl-3-oxo-4H-5-pyrid[1,4]oxazin-6-yl)-5-fluoro-N2-[3-(N-methylamino)carbonylmethyleneoxyphenyl]-2,4-pyrimidinediamine (+)-Camphorsulfonic Acid Salt] |  |  | pIC50 ([2]; CHMC low cell density, 3pt): < 5.00
2 | Cn1ncc2ccc(Nc3ncc(F)c(Nc4ccc5c(n4)NC(=O)C(C)(C)O5)n3)cc21 [Compound 1056, N4-(2,2-Dimethyl-3-oxo-4H-5-pyrid[1,4]oxazin-6-yl)-5-fluoro-N2-[1-methylindazol-6-yl]-2,4-pyrimidinediamine Hydrogen Chloride Salt] |  |  | pIC50 ([2]; low cell density CHMC, 3-point): < 5.00
3 | CC(=O)N1CCN(c2cccc(Nc3ncc(F)c(Nc4ccc5c(n4)NCCO5)n3)c2)CC1 [Compound 1137, N2-[3-(4-Acetylpiperazino)phenyl]-N4-(3,4-dihydro-2H,4H-5-pyrid[1,4]oxazin-6-yl)-5-fluoro-2,4-pyrimidinediamine] |  |  | pIC50 [1, 5]: > 5.00; pIC50 [1, 6]: > 5.00
4 | CCOC(=O)N1CCN(c2cccc(Nc3ncc(F)c(Nc4ccc5c(n4)NCCO5)n3)c2)CC1 [Compound 1138, N4-(3,4-Dihydro-2H,4H-5-pyrid[1,4]oxazin-6-yl)-N2-[3-(4-ethoxycarbonylpiperazino)phenyl]-5-fluoro-2,4-pyrimidinediamine] |  |  | pIC50 [1, 5]: > 5.00; pIC50 [1, 6]: > 5.00
5 | C[C@@H]1Oc2ccc(Nc3nc(Nc4ccc(C(=O)N=CC(=O)O)cc4)ncc3F)cc2NC1=O [Compound 1264] |  |  | pIC50 [1, 7]: < 5.00
6 | C[C@H]1Oc2ccc(Nc3nc(Nc4ccc(C(=O)N=CC(=O)O)cc4)ncc3F)cc2NC1=O [Compound 1267] |  |  | pIC50 [1, 7]: < 5.00
7 | C[C@@H]1Oc2ccc(Nc3nc(NC4=CC=CC(=CNC(=O)OC(C)(C)C)C4)ncc3F)cc2NC1=O [Compound 1276] |  |  | pIC50 [1, 7]: > 5.00; pIC50 [1, 8]: > 5.00
8 | C[C@@H]1Oc2ccc(Nc3nc(NC4=CC=CC(=CN)C4)ncc3F)cc2NC1=O [Compound 1279] |  |  | pIC50 [1, 7]: > 5.00; pIC50 [1, 8]: > 5.00
9 | (R)—N2-[3-(N-tert-Butoxycarbonylamino)methylenephenyl]-5-fluoro-N4-(2-methyl-3-oxo-2H,4H-benz[1,4]oxazin-6-yl) [Compound 1277] | > 5.00 | > 5.00 | 
10 | (S)-5-Fluoro-[1-(2-hydroxymethyl)-2-trifluoromethylbenzimidazol-5-yl]-N4-(2-methyl-3-oxo-2H,4H-benz[1,4]oxazin-6-yl)-2,4-pyrimidinediamine [Compound 923] |  |  | pIC50 [1, 9]: > 5.00
11 | N2-(2-Aminocarbonylphenyl)-N4-(2,2-dimethyl-3-oxo-4H-5-pyrid[1,4]oxazin-6-yl)-5-fluoro-2,4-pyrimidinediamine [Compound 1316] | > 5.00 | < 5.00 | 
12 | N2-(4-Aminocarbonylphenyl)-N4-(2,2-dimethyl-3-oxo-4H-5-pyrid[1,4]oxazin-6-yl)-5-fluoro-2,4-pyrimidinediamine [Compound 1315] | > 5.00 |  | 
13 | N4-(2,2-Dimethyl-3-oxo-4H-5-pyrid[1,4]oxazin-6-yl)-5-fluoro-N2-(3-methoxycarbonylppyrid-2yl)-2,4-pyrimidinediamine [Compound 1314] | > 5.00 |  | 
14 | N4-(2,2-Dimethyl-3-oxo-4H-5-pyrid[1,4]oxazin-6-yl)-5-fluoro-N2-(4-methoxycarbonylphenyl)-2,4-pyrimidinediamine [Compound 1313] | > 5.00 |  | 
15 | N4-(2,2-Dimethyl-3-oxo-4H-5-pyrid[1,4]oxazin-6-yl)-5-fluoro-[1-(2-hydroxymethyl)-2-trifluoromethylbenzimidazol-5-yl]-2,4-pyrimidinediamine [Compound 924] |  |  | pIC50 [1, 9]: > 5.00
16 | N4-(2,2-Dimethyl-3-oxo-4H-5-pyrid[1,4]oxazin-6-yl)-N2-(1-methyl-2-trifluoromethylbenzimidazol-5-yl)-2,4-pyrimidinediamine [Compound 915] |  |  | pIC50 [1, 9]: > 5.00
17 | N4-(2,2-Dimethyl-3-oxo-4H-N4-oxo-5-pyrido[1,4]oxazin-6-yl)-5-fluoro-N2-(3,4,5-trimethoxyphenyl)-2,4-pyrimidinediamine [Compound 1340] | > 5.00 | > 5.00 | 
18 | N4-(2,2-Dimethyl-3-oxo-4H-benz[1,4]oxazin-6-yl)-5-fluoro-N2-{1-methyl-2-[(methylsulfonyl)methyl]benzimidazol-5-yl}-2,4-pyrimidinediamine [Compound 967] |  |  | pIC50 ([1]; CHMC low cell density, 3pt, read-out: LD Tryptase, CHMC, IgE, 3pt): > 5.00; pIC50 [1, 9]: > 5.00
19 | N4-(2,2-Dimethyl-3-oxo-4H-benz[1,4]oxazin-6-yl)-5-fluoro-[1-(2-hydroxymethyl)-2-trifluoromethylbenzimidazol-5-yl]-2,4-pyrimidinediamine [Compound 922] |  |  | pIC50 [1, 9]: > 5.00
20 | N4-(2,2-Dimethyl-3-oxo-4H-benz[1,4]oxazin-6-yl)-N2-(1-methyl-2-trifluoromethylbenzimidazol-5-yl)-2,4-pyrimidinediamine [Compound 913] |  |  | pIC50 [1, 9]: > 5.00

Second part, led by results:

Row | pIC50 [1, 3] | pIC50 [1, 4] | Molecule | also measured
21 | > 5.00 | > 5.00 | COc1cc(C)c(Nc2ncc(F)c(Nc3ccc4c(c3)NC(C)(C)CO4)n2)cc1Cl [Compound 216, N2-(3-Chloro-4-methoxy-6-methylphenyl)-N4-(3,4-dihydro-3,3-dimethyl-2H,4H-benz[1,4]oxazin-6-yl)-5-fluoro-2,4-pyrimidinediamine] | pIC50 ([2]; low cell density CHMC, 3pt): < 5.00
22 | > 5.00 | > 5.00 | Fc1cnc(Nc2cccc(-c3ncco3)c2)nc1Nc1ccc2c(c1)NCCO2 [Compound 217, N4-(3,4-Dihydro-2H,4H-benz[1,4]oxazin-6-yl)-5-fluoro-N2-[3-(oxazol-2-yl)phenyl]-2,4-pyrimidinediamine] | pIC50 ([2]; low cell density CHMC, 3pt): < 5.00
23 | > 5.00 | > 5.00 | CC1(C)COc2ccc(Nc3nc(Nc4cccc(-c5ncco5)c4)ncc3F)cc2N1 [Compound 218, N4-(3,4-Dihydro-3,3-dimethyl-2H,4H-benz[1,4]oxazin-6-yl)-5-fluoro-N2-[3-(oxazol-2-yl)phenyl]-2,4-pyrimidinediamine] | pIC50 ([2]; low cell density CHMC, 3pt): < 5.00
24 | > 5.00 | > 5.00 | Fc1cnc(Nc2ccc(-c3cnco3)cc2)nc1Nc1ccc2c(c1)NCCO2 [Compound 222, N4-(3,4-Dihydro-2H,4H-Benz[1,4]oxazin-6-yl)-5-fluoro-N2-[4-(oxazol-5-yl)phenyl]-2,4-pyrimidinediamine] | pIC50 ([2]; low cell density CHMC, 3pt): < 5.00
25 | > 5.00 | > 5.00 | CN1CCN(c2ccc(Nc3ncc(F)c(Nc4ccc5c(n4)NCCO5)n3)cc2Cl)CC1 [Compound 1197, N2-[3-Chloro-4-(4-methylpiperazino)phenyl]-N4-(3,4-dihydro-2H,4H-5-pyrid[1,4]oxazin-6-yl)-5-fluoro-2,4-pyrimidinediamine] | 
26 | > 5.00 | > 5.00 | Cc1cc(Nc2ncc(F)c(Nc3ccc4c(n3)NCCO4)n2)ccc1N1CCN(C)CC1 [Compound 1203, N4-(3,4-Dihydro-2H,4H-5-pyrid[1,4]oxazin-6-yl)-5-fluoro-N2-[3-methyl-4-(4-methylpiperazino)phenyl]-2,4-pyrimidinediamine] | 
27 | > 5.00 | > 5.00 | C[C@H]1Oc2ccc(Nc3nc(Nc4cccc(CN)c4)ncc3F)cc2NC1=O [Compound 1280] | 
28 | > 5.00 |  | N4-[benzoxathiazin-3(4H)-one-6-yl]2-chloro-5-fluoro-4-pyrimidinea mine [Compound 319] | 
